Reference: US8865724B2, “Preparation of 2-methyl-4-amino-5(substituted-1H-1,2,3-triazolyl)methylpyrimidine derivatives and microbicidal activity thereof” (Central China Normal University, priority 2011, dated 2014)
Read-outs that look alike come from different tables or passages of the source.

Assays:
gray mold of cucumber = test: Spawn growth rate on agar plates (Embodiment 9); assay type: cell-based, Botrytis cinerea; conditions: 48 h; for inhibition of growth at 12.5 µg/g: Concentration 12.5 μg/g; for inhibition of growth at 25 µg/g: Concentration 25 μg/g; for inhibition of growth at 50 µg/g: Concentration 50 μg/g
wheat scab = test: microbe, parasite or virus in culture; assay type: cell-based, Gibberella zeae; conditions: for inhibition of growth at 100 µg/g: 48 h, read-out: Wheat scab Average inhibition rate (%); for Wheat scab (inhibition): Table 7
early blight of tomato = test: Spawn growth rate on agar plates (Embodiment 9); assay type: cell-based, Alternaria solania; conditions: for inhibition of growth at 100 µg/g: 48 h, testing concentration of 100 μg/g, Table 6; for Early blight of tomato (inhibition): Table 7
[1] = test system: Rice Sheath Blight Disease (sheath and culm blight of rice); test: Spawn growth rate on agar plates (Embodiment 9); assay type: cell-based, Rhizoctonia solani; conditions: 48 h; for inhibition of growth at 12.5 µg/g: Concentration 12.5 μg/g; for inhibition of growth at 25 µg/g: Concentration 25 μg/g; for inhibition of growth at 50 µg/g: Concentration 50 μg/g
[2] = test system: Rice Sheath Blight Disease; test: Microbicidal activity, spray then strip inoculation (Embodiment 8); conditions: Oryza sativa, read-out: Rice Sheath Blight Disease Average inhibition rate (%)
[3] = test system: Cucumber Angular Leaf Spot; test: Microbicidal activity on cucumber seedlings, spray then inoculation (Embodiment 8); conditions: Cucumis sativus, read-out: Cucumber Angular Leaf Spot Average inhibition rate (%)
Procedure: (§1) (Pseudomonassyringaepv. tomato (Okabe) Young, Dye & Wilkie), Cucumber Angular Leaf Spot, Rice Sheath Blight Disease (Rhizoctonia solani), Corynespora Leaf Spot of Cucumber (Corynespora cassiicola), Downy Mildew of Cucumber (Cucumber Downy Mildew).
(§2) Testing agents and control agents were sprayed uniformly at A.M. of a sunshine day on the cucumber seminal leaves. After 2 hours, the leaves were inoculated with pathogenic microbes and cultured at humidity. […] Strip inoculation is used for Rice Sheath Blight Disease and phytophthora blight of pepper, in which the liquor was sprayed and after 2 hours, inoculation of strips was performed followed by culturing at humidity. After full occurrence of diseases in the control group, state of illness was examined according to grading standards, and a disease index and inhibition rate were calculated.

[4] = test system: Corynespora Leaf Spot of Cucumber; test: Microbicidal activity on cucumber seedlings, spray then spore inoculation (Embodiment 8); conditions: Corynespora, in Cucumis sativus, read-out: Corynespora Leaf Spot of Cucumber Average inhibition rate (%)
Procedure: as §1, §2

Downy Mildew of Cucumber = test: as above; conditions: Cucumis sativus, read-out: Downy Mildew of Cucumber Average inhibition rate (%)
Procedure: as §1, §2

[5] = testing concentration of 100 μg/g, Table 6, read-out: Gray mold of cucumber Average inhibition rate (%)
[6] = testing concentration of 100 μg/g, Table 6, read-out: Sheath and culm blight of rice Average inhibition rate (%)
[7] = testing concentration of 100 μg/g, Table 4, read-out: Gray mold of cucumber Average inhibition rate (%)

Row | Compound | inhibition of growth at 12.5 µg/g (gray mold of cucumber; Table 8) [%] | inhibition of growth at 25 µg/g (gray mold of cucumber; Table 8) [%] | inhibition of growth at 50 µg/g (gray mold of cucumber; Table 8) [%] | inhibition of growth at 100 µg/g (gray mold of cucumber; [5]) [%] | inhibition of growth at 100 µg/g (wheat scab) [%] | inhibition of growth at 100 µg/g (early blight of tomato) [%] | inhibition of growth at 12.5 µg/g ([1]; Table 8) [%] | inhibition of growth at 25 µg/g ([1]; Table 8) [%] | inhibition of growth at 50 µg/g ([1]; Table 8) [%] | inhibition of growth at 100 µg/g [1, 6] [%] | melting point [°C] | inhibition of growth at 100 µg/g (gray mold of cucumber; [7]) [%] | pest or weed control at 500 µg/g [2] [%] | pest or weed control at 500 µg/g [3] [%] | pest or weed control at 500 µg/g [4] [%] | pest or weed control at 500 µg/g (Downy Mildew of Cucumber) [%] | further results
1 | Cc1ncc(Cn2nnc(COc3ccc(Cl)cc3C)c2I)c(N)n1 [Compound 29] | 47 | 72 | 91 | 100 | 67 | 60 | 33 | 68 | 69 | 98 | 163 to 165 | – | – | – | – | – | inhibition of growth at 25 µg/g (gray mold of cucumber; Table 7): 79%; inhibition of growth at 50 µg/g (gray mold of cucumber; Table 7): 90%; inhibition of growth at 100 µg/g (gray mold of cucumber; Concentration 100 μg/g, Table 7, read-out: Gray mold of cucumber (inhibition)): 100%; Wheat scab (inhibition) (wheat scab; Concentration 25 μg/g): 26%; Wheat scab (inhibition) (wheat scab; Concentration 50 μg/g): 45%; Wheat scab (inhibition) (wheat scab; Concentration 100 μg/g): 52%; Early blight of tomato (inhibition) (early blight of tomato; Concentration 25 μg/g): 0%; Early blight of tomato (inhibition) (early blight of tomato; Concentration 50 μg/g): 25%; Early blight of tomato (inhibition) (early blight of tomato; Concentration 100 μg/g): 41%; inhibition of growth at 25 µg/g ([1]; Table 7): 64%; inhibition of growth at 50 µg/g ([1]; Table 7): 70%; inhibition of growth at 100 µg/g ([1]; Concentration 100 μg/g, Table 7, read-out: Sheath and culm blight of rice (inhibition)): 96%
2 | Cc1ncc(Cn2nnc(COc3ccccc3)c2I)c(N)n1 [Compound 23] | – | – | – | 88 | 59 | 57 | – | – | – | 96 | – | – | – | – | – | – | –
3 | COc1ccc(OCc2nnn(Cc3cnc(C)nc3N)c2I)cc1 [Compound 26] | 43 | 55 | 88 | 92 | 55 | 69 | 58 | 72 | 94 | 99 | 177 to 179 | – | – | – | – | – | –
4 | Cc1ncc(Cn2cc(COc3ccc(Cl)c(C)c3)nn2)c(N)n1 [Compound 11] | – | – | – | – | 54 | – | – | – | – | – | 142 to 143 | 67 | 70 | 60 | 65 | 50 | –
5 | Cc1ncc(Cn2nnc(COc3ccc(Cl)c(C)c3)c2I)c(N)n1 [Compound 25] | 40 | 50 | 67 | 96 | 62 | 71 | 0 | 25 | 61 | 97 | 215 to 217 | – | – | – | – | – | –
6 | Cc1ncc(Cn2nnc(COc3ccc(F)cc3)c2I)c(N)n1 [Compound 82] | 56 | 97 | 99 | 96 | 48 | 70 | 63 | 90 | 100 | 96 | 160 to 162 | – | – | – | – | – | –
7 | CCOC(=O)c1ccc(OCc2cn(Cc3cnc(C)nc3N)nn2)cc1 [Compound 3] | – | – | – | – | – | – | – | – | – | – | 190 to 192 | 70 | 80 | 60 | 80 | 60 | –
8 | Cc1ncc(Cn2cc(COc3ccccc3)nn2)c(N)n1 [Compound 12] | – | – | – | – | – | – | – | – | – | – | 132 to 133 | 53 | 80 | 60 | 70 | 70 | –
9 | Cc1ncc(Cn2nnc(COc3ccccc3Cl)c2I)c(N)n1 [Compound 86] | 40 | 76 | 97 | 100 | 62 | 60 | 37 | 74 | 98 | 99 | 168 to 170 | – | – | – | – | – | –
10 | Cc1ncc(Cn2cc(COc3ccc(F)cc3Cl)nn2)c(N)n1 [Compound 6] | – | – | – | – | – | – | – | – | – | – | 169 to 171 | 63 | 70 | 65 | 90 | 30 | –
